# From patent publication US20060287383A1, “Substance exhibiting antidepressant property” (priority 2003, published 2006)
# Tests used:
# Type in all cases: in vivo
# white outbred male rats [1] = experiment: involuntary swimming in a reservoir with freely moving wheels according to Nomura
# Procedure: The method of involuntary swimming in a reservoir with freely moving wheels (Nomura S., Shimizu J., Kinjo M. et al. A new behavioral test for antidepressant drugs//Eur. J. Pharmacol.—1982.—v. 83.—N 34.—p. 171-175) is widely used for assessing the action of antidepressant agents. The installation is a reservoir having dimensions of 64×30×42 cm and divided into four equal sections where wheels are located. The reservoir is filled with water at the temperature of 25° C., coming to the medium line of the wheels. The studies have been conducted with white outbred male rats having the weight from 230 to 250 grams. The rats have been put into each section in the position where their heads are opposite to the wheels, and then the wheel speed has been recorded for 10 minutes with the use of electromechanical counters. The number of wheel revolutions made by the rat for 10 minutes is recorded.
# This study has been conducted with animals from different groups. The rats from the experimental groups have received single doses of phenotropyl in the amounts of 25, 50 and 100 mg/kg or the standard amitriptyline medication in the amount of 10 mg/kg (ampoule solution made by Spofa, the Czech Republic) in the volume corresponding to the dosage. The animals from the control group have received distilled water in the same dosage. All the substances have been given intragastrically 40 minutes before the an experiment.
# white outbred male rats [2] = experiment: reserpine depression method according to Bernardi; settings: for reduction of the diarrhea intensity / reduction of the intensity of ptosis: versus reserpine; for orientation and motion activity: reserpinized rats; for Diarrhea / Ptosis: 4-point scale; for Number of pulses in activity meter: three minutes, Varimex
# From the text: The method of reserpine depression according to Bernardi (Bernardi D., Paglialunga S., Jori A. Peripheral and central components in the hyperthermic effect of desipramine in rezerpinized rats//J. Pharm. Pharmacol., 1968, vol. 20, p. 204-209) is one of the basic models for assessing antidepressants in studies of new pharmaceuticals. The studies have been conducted with white outbred male rats having the weight from 200 to 240 grams. Reserpine has been introduced intraperitoneally, as a single dose of 2.5 mg/kg 2 hours before the introduction of phenotropyl (intraperitoneally, single doses of 25, 50, 100 and 200 mg/kg) and 3 hours before starting the study. The animals from the control group have received intraperitoneally distilled water only in the same volumes as the animals from the experimental groups. The antidepressant activity of phenotropyl has been assessed by its effect on sedation (suppression of the orientation and motion activity), intensity of ptosis and diarrhea, which have been caused by reserpine in the rats.
# The orientation and motion activity of the animals has been studied for three minutes in a special activity meter (Varimex). The intensity of ptosis and diarrhea has been assessed on the standard 4-point scale (Mashkovsky M. D., Andreeva N. I., Polezhaeva A. I. Pharmacology of Antidepressants. Moscow, Medicine Publishers, 1983, p. 194-199).
# white outbred male mice = experiment: haloperidol catalepsy method
# Procedure: As one of the indicators for antidepressant antagonism in relation to depriming effects of neuroleptics, neuroleptic-induced catalepsy is used. The maintenance of catalepsy in animals is assessed by their ability to maintain set or unusual poses for a definite time (Morpurgo C. Effects of antiparkinson drugs on phenothiazine induced catatonia reaction//Arch. Int Pharmacodyn., 1962, vol. 137 No 1-2, p. 84-94). Reduction or prevention of catalepsy is one of the factors showing antidepressant activity in studied substances.
# The studies have been conducted with white outbred male mice having the weight from 18 to 24 grams. Haloperidol is introduced intraperitoneally in a single dose of 0.5 mg/kg. Phenotropyl has been introduced intraperitoneally in doses of 50, 100 and 200 mg/kg in 15 minutes after the introduction of haloperidol. The catalepsy intensity has been assessed by time (in seconds) of keeping the animals in an uncomfortable pose where their front legs have been put onto a bar having the height of 4 cm, in 60, 120 and 180 minutes after introducing the said medications. It is shown in Table 4 that phenotropyl clearly antagonizes haloperidol-induced catalepsy.
# [3] = reserpine 2.5 mg/kg + phenotropyl 25 mg/kg intraperitoneally
# [4] = reserpine 2.5 mg/kg + phenotropyl 50 mg/kg intraperitoneally
# [5] = reserpine 2.5 mg/kg + phenotropyl 100 mg/kg intraperitoneally
# [6] = reserpine 2.5 mg/kg + phenotropyl 200 mg/kg intraperitoneally
compound,measurement,setting,value
"NC(=O)CN1CC(c2ccccc2)CC1=O (stereo not shown) [Phenotropyl, N-carbamoyl-methyl-4-phenyl-2-pyrrolidone]",Number of wheel revolutions for 10 minutes,white outbred male rats [1]; single dose 25 mg/kg intragastrically 40 minutes before,89.3 ± 17.2
same,Number of wheel revolutions for 10 minutes,white outbred male rats [1]; single dose 50 mg/kg intragastrically 40 minutes before,102.7 ± 16.1
same,Number of wheel revolutions for 10 minutes,"white outbred male rats [1]; single dose 100 mg/kg intragastrically 40 minutes before, 100 mg/kg",121.8 ± 23.7
same,Number of wheel revolutions for 10 minutes,"white outbred male rats [1]; single dose 100 mg/kg intragastrically 40 minutes before, listed as phenotropyl, 100 mg/kg",121.8±23.7
same,reduction of the diarrhea intensity,white outbred male rats [2]; phenotropyl 50 mg/kg,1.7 times
same,reduction of the intensity of ptosis,white outbred male rats [2]; phenotropyl 50 mg/kg,1.4 times
same,reduction of the diarrhea intensity,white outbred male rats [2]; phenotropyl 100 mg/kg,2.4 times
same,reduction of the diarrhea intensity,white outbred male rats [2]; phenotropyl 200 mg/kg,2.2 times
same,reduction of the intensity of ptosis,white outbred male rats [2]; phenotropyl 100 and 200 mg/kg,1.8 times
same,orientation and motion activity,white outbred male rats [2]; phenotropyl doses of 25 and 50 mg/kg,increased
same,orientation and motion activity,white outbred male rats [2]; phenotropyl doses of 100 and 200 mg/kg,reliably corresponds to the control level
same,Diarrhea,white outbred male rats [2]; [3],2.0 ± 0.1 points
same,Ptosis,white outbred male rats [2]; [3],3.0 ± 0.2 points
same,Number of pulses in activity meter,white outbred male rats [2]; [3],20.3 ± 1.4
same,Diarrhea,white outbred male rats [2]; [4],1.4 ± 0.2 points
same,Ptosis,white outbred male rats [2]; [4],2.5 ± 0.2 points
same,Number of pulses in activity meter,white outbred male rats [2]; [4],22.8 ± 1.2
same,Diarrhea,white outbred male rats [2]; [5],1.0 ± 0.2 points
same,Ptosis,white outbred male rats [2]; [5],2.0 ± 0.2 points
same,Number of pulses in activity meter,white outbred male rats [2]; [5],30.6 ± 2.4
same,Diarrhea,white outbred male rats [2]; [6],1.1 ± 0.2 points
same,Ptosis,white outbred male rats [2]; [6],2.0 ± 0.1 points
same,Number of pulses in activity meter,white outbred male rats [2]; [6],33.9 ± 3.2
same,Catalepsy,"white outbred male mice; haloperidol 0.5 mg/kg + phenotropyl 50 mg/kg intraperitoneally, 60 minutes",0.0 ± 0.0 s
same,Catalepsy,"white outbred male mice; haloperidol 0.5 mg/kg + phenotropyl 50 mg/kg intraperitoneally, 120 minutes",8.2 ± 3.2 s
same,Catalepsy,"white outbred male mice; haloperidol 0.5 mg/kg + phenotropyl 50 mg/kg intraperitoneally, 180 minutes",4.5 ± 2.5 s
same,Catalepsy,"white outbred male mice; haloperidol 0.5 mg/kg + phenotropyl 100 mg/kg intraperitoneally, 60 minutes",0.0 ± 0.0 s
same,Catalepsy,"white outbred male mice; haloperidol 0.5 mg/kg + phenotropyl 100 mg/kg intraperitoneally, 120 minutes",2.0 ± 1.0 s
same,Catalepsy,"white outbred male mice; haloperidol 0.5 mg/kg + phenotropyl 100 mg/kg intraperitoneally, 180 minutes",0.0 ± 0.0 s
same,Catalepsy,"white outbred male mice; haloperidol 0.5 mg/kg + phenotropyl 200 mg/kg intraperitoneally, 60 minutes",0.0 ± 0.0 s
same,Catalepsy,"white outbred male mice; haloperidol 0.5 mg/kg + phenotropyl 200 mg/kg intraperitoneally, 120 minutes",11.8 ± 2.1 s
same,Catalepsy,"white outbred male mice; haloperidol 0.5 mg/kg + phenotropyl 200 mg/kg intraperitoneally, 180 minutes",0.0 ± 0.0 s
same,reduction of catalepsy development level,"white outbred male mice; phenotropyl 50 mg/kg, 120 minutes",3.2 times
same,reduction of catalepsy development level,"white outbred male mice; phenotropyl 50 mg/kg, 180 minutes",13.2 times
same,reduction of catalepsy development level,"white outbred male mice; phenotropyl 100 mg/kg, 120 minutes",14 times
same,development of catalepsy,"white outbred male mice; phenotropyl dose of 100 or 200 mg/kg, 180 minutes",fully stopping its development
same,development of catalepsy,"white outbred male mice; phenotropyl doses of 50 and 100 mg/kg, 60 minutes",fully prevents the development of catalepsy
